IC50 and EC50 data for 19 compounds are collected here from patent US7642277B2, “Non-nucleoside reverse transcriptase inhibitors” (Boehringer Ingelheim International GmbH, priority 2002, dated 2010).

Assay [1] concerns the target T1, HIV-1 RT enzyme (wild type) (Human immunodeficiency virus type 1 group M subtype B, UniProt P04585).
T1 construct: The reverse transcriptase (RT) enzyme assay has been adapted to a 96-well microtiter plate format
Description: Reverse transcriptase (RT) enzymatic assay (IC50), PicoGreen fluorescence, wild type. It is filed as biochemical. Conditions: RT enzymatic assay, wild type; read-out: IC50 WT. The gist of the method:
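Enzyme at ≈10 nM in 50 mM Tris/HCl pH 7.8 with 60 mM NaCl, 2 mM MgCl2, 6 mM DTT, 2 mM GSH, 0.02% Chaps; 15 min preincubation with compound at room temperature, then substrate added and run 50 min at 37 °C. EDTA quench; product DNA read by PicoGreen fluorescence.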

The target in assay [2] is T2, HIV-1 RT resistant mutant K103N/Y181C (Human immunodeficiency virus type 1 group M subtype B, UniProt P04585, K690N/Y768C).
T2 construct: The reverse transcriptase (RT) enzyme assay has been adapted to a 96-well microtiter plate format
Description: Reverse transcriptase (RT) enzymatic assay (IC50), PicoGreen fluorescence, resistant mutant. It is filed as biochemical. As for the experimental part: Reverse Transcriptase (RT) Assays Enzymatic Assay (IC50)
The enzymatic assay employed is described as follows: The reverse transcriptase (RT) enzyme assay has been adapted to a 96-well microtiter plate format and uses PicoGreen™ as a fluorescent intercalator. More explicitly, the HIV-1 RT enzyme was thawed and appropriately diluted into Tris/HCl 50 mM pH 7.8 containing NaCl 60 mM, MgCl2∘6H2O 2 mM, DTT 6 mM, GSH 2 mM and 0.02% w/v Chaps to give ≈10 nM enzyme. To 10 μL of this enzyme solution was added 10 μL of inhibitor solution (40 μM to […] inhibitor in the same assay buffer as above containing 4% v/v DMSO). The plate was pre-incubated for 15 minutes at room temperature before proceeding to the next step. In this pre-incubation step, the highest and lowest inhibitor concentrations were 20 μM and 1.016 nM respectively and the concentration of DMSO was 2% v/v. Then the enzymatic reaction was initiated by addition of 20 μL of substrate solution. The final reaction mixture contained Tris/HCl 50 mM pH 7.8, NaCl 60 mM, MgCl2∘6H2O 2 mM, DTT 6 mM, GSH 2 mM, CHAPS 0.02% w/v, DMSO 1% v/v, poly rC 45 nM, dG15 4.5 nM, dGTP 3.6 μM, and ≈2.5 nM enzyme. In this incubation step, the highest and lowest inhibitor concentrations were 10 μM and 0.508 nM respectively. After addition of the substrate cocktail, the plate was covered with a plastic seal and incubated for 50 minutes at 37° C. in a dry incubator. The reaction was then quenched by addition of 5 μL of EDTA 0.5 M. The plate was shaken for 30 seconds at medium speed and incubated for 5 minutes at room temperature. Then 160 μL of PicoGreen™ 1:400 dilution from commercial stock (diluted in Tris 20 mM pH 7.5 with EDTA 1 mM) was added and the plate was shaken for 30 seconds and incubated for 10 minutes at room temperature. The plate was then analyzed using a POLARstar Galaxy fluorimeter (BMG Labtechnologies) with λex and λem of 485 nm and 520 nm respectively. […] Each row contained at its extremities a blank and a control well.
(§1) Table legend: A=>100; B=100-50; C=<50; NT=not tested

Assay [3] has as its system HIV-1 (wild type) in C8166 LTRluc cells. Description: C8166 HIV-1 luciferase assay (EC50), wild type. It counts as cell-based. The following applies: Human immunodeficiency virus 1, C8166 HIV-1 luciferase assay (no *).
Excerpt: (§2) C8166 HIV-1 Luciferase Assay (EC50)
(§3) Plasmid: pGL3 Basic LTR/TAR #12
Plasmid is the pGL3 Basic Vector (a promoterless luciferase expression vector from Promega catalogue #E1751) with the addition of HIV-1 H×B2 LTR sequence from nucleotide −138 to +80 (Sca1-HindIII) upstream of the luciferase gene and the gene for blasticidine resistance cloned in.
(§4) C8166 cells are a human T-lymphotrophic virus type 1 immortalized but nonexpressing line of cord blood lymphocytes and are highly permissive to HIV-1 infection. The reporter cells were made by electroporating C8166 cells with pGL3 Basic LTR/TAR and then selecting positive clones with blasticidine. The clone C8166-LTRluc #A8-F5-G7 was selected by 3 consecutive rounds of limiting dilution under blasticidine selection.
(§5) Media: Complete media consisting of: RPMI 1640+10% FBS+10^−5 M
(§6) β-mercaptoethanol+10 μg/ml gentamycin. Cultures are maintained in complete media with 5 μg/ml blasticidine, however, selection is removed for the assay.
(§7) Luciferase Assay Protocol
Serial dilutions of HIV-1 inhibitors compounds are prepared in complete media from 10 mM DMSO stock solutions. Eleven serial dilutions of 2.5× are made at 8× desired final concentration in a 1 ml deep well titer plate (96 wells). The 12th well contains complete media with no inhibitor and serves as the positive control. All samples contain the same concentration of DMSO (≦0.1% DMSO). A 25 μl aliquot of inhibitor is added, to triplicate wells, of a 96 well tissue culture treated clear view black microtiter plate (Corning Costar catalogue # 3904). The last row is reserved for uninfected C8166 LTRluc cells to serve as the background blank control and the first row is media alone.
Count C8166 LTRluc cells and place in a minimal volume of complete RPMI 1640 in a tissue culture flask (ex. 30×10^6 cells in 10 ml media/25 cm^2 flask). Infect cells with HIV-1 at a moi of 0.005. Incubate cells for 1.5 hours at 37° C. on a rotating rack in a 5% CO2 incubator. Resuspend cells in complete RPMI to give a final concentration of 25,000-cells/175 μl. Add 175 μl of cell mix to wells of 96 well microtiter plate containing 25 μl 8× inhibitors. Add 25,000 uninfected C8166-LTRluc cells/well in 200 μl complete RPMI to last row for background control. Incubate cells at 37° C. in 5% CO2 incubator for 3 days.
(§8) Add 50 μl Steady Glo (luciferase substrate T1/2=5 hours Promega catalogue # E2520) to each well of the 96 well plate. Determine the relative light units (RLU) of luciferase using the BMG LUMlstar Galaxy luminometer. Plates are read from the bottom for 2 seconds per well with a gain of 240.
(§9) The level of inhibition (% inhibition) of each well containing inhibitor was calculated with the following equation: […]
The calculated % inhibition values were then used to determine EC50, slope factor (n) and maximum inhibition (Imax) by the non-linear regression routine NLIN procedure of SAS using the following equation: […]
The results are listed in Table 9 as IC50(nM) and EC50 (nM).
as §1

Assay [4] relates to HIV-1 resistant mutant K103N/Y181C in C8166 LTRluc cells. Description: C8166 HIV-1 luciferase assay (EC50), resistant mutant. It is filed as cell-based. The following applies: Human immunodeficiency virus 1, C8166, read-out: EC50 K103N/Y181C.
Excerpt: as §2, §3, §4, §5, §6, §7
Eleven serial dilutions of 2.5× are made at 8× desired final concentration in a 1 ml deep well titer plate (96 wells). The 12th well contains complete media with no inhibitor and serves as the positive control. All samples contain the same concentration of DMSO (≦0.1% DMSO). A 25 μl aliquot of inhibitor is added, to triplicate wells, of a 96 well tissue culture treated clear view black microtiter plate (Corning Costar catalogue # 3904). The last row is reserved for uninfected C8166 LTRluc cells to serve as the background blank control and the first row is media alone.
Count C8166 LTRluc cells and place in a minimal volume of complete RPMI 1640 in a tissue culture flask (ex. 30×10^6 cells in 10 ml media/25 cm^2 flask). […] Incubate cells for 1.5 hours at 37° C. on a rotating rack in a 5% CO2 incubator. Resuspend cells in complete RPMI to give a final concentration of 25,000-cells/175 μl. Add 175 μl of cell mix to wells of 96 well microtiter plate containing 25 μl 8× inhibitors. Add 25,000 uninfected C8166-LTRluc cells/well in 200 μl complete RPMI to last row for background control. Incubate cells at 37° C. in 5% CO2 incubator for 3 days.
as §8, §9
The calculated % inhibition values were then used to determine EC50, slope factor (n) and maximum inhibition (Imax) by the non-linear regression routine NLIN procedure of SAS using the following equation:
as §1

Some results are limits rather than exact numbers.

What is called IC50 is the midpoint of a concentration-inhibition curve. As for `Cc1ccc(-n2nnnc2SCC(=O)Nc2ccc(-c3cccnc3)cc2Cl)c(Cl)c1` [Entry 512], the 50% inhibitory concentration (IC50) in assay [1] is less than 50 nM; in assay [2], more than 100 nM. For the same compound, the EC50 in assay [3] was less than 50 nM; in assay [4], more than 100 nM.
On to `CC(C)S(=O)(=O)c1ccc(NC(=O)CSc2nnnn2-c2ccc(C(C)(C)C)cc2Cl)c(Cl)c1` [Entry 607], for which the values for the IC50 in assay [1] and in assay [2] were less than 50 nM and more than 100 nM, respectively. The EC50 is less than 50 nM in assay [3] and 50 to 100 nM in assay [4].
For `CC(C)(C)c1ccc(-n2nnnc2SCC(=O)Nc2ccc(N3CCCCC3)cc2Cl)c(Cl)c1` [Entry 613], the figures for the IC50 in assay [1] and in assay [2] were less than 50 nM and more than 100 nM, respectively. Besides, the EC50 in assay [3] was less than 50 nM; in assay [4], more than 100 nM.
For the compound `CN1CCN(c2ccc(NC(=O)CSc3nnnn3-c3ccc(C(C)(C)C)cc3Cl)c(Cl)c2)CC1` [Entry 610], the IC50 in assay [1] is less than 50 nM; in assay [2], more than 100 nM. Besides, the EC50 in assay [3] is less than 50 nM; in assay [4], more than 100 nM.
Consider `Cc1nnc(SCC(=O)Nc2ccccc2[N+](=O)[O-])n1-c1cccc2ccccc12` [Entry 403], for which the results for the IC50 in assay [1] and in assay [2] were less than 50 nM and more than 100 nM, respectively. Also, the values for the EC50 in assay [3] and in assay [4] were less than 50 nM and more than 100 nM, respectively.
`Cc1ccc(-n2nnnc2SCC(=O)Nc2ccc(S(C)(=O)=O)cc2Cl)c(Cl)c1` [Entry 509]: the values for the IC50 in assay [1] and in assay [2] were less than 50 nM and more than 100 nM, respectively. Besides, the EC50 in assay [3] was less than 50 nM; in assay [4], more than 100 nM.
As for `Cc1ccc(-c2ccccc2SCC(=O)Nc2ccccc2Cl)c(Cl)c1` [Entry 416], the IC50 in assay [1] was less than 50 nM; in assay [2], more than 100 nM. Also, the EC50 in assay [3] was less than 50 nM; in assay [4], more than 100 nM.
On to `CC(C)CS(=O)(=O)c1ccc(NC(=O)CSc2nnnn2-c2ccc(C(C)(C)C)cc2Cl)c(Cl)c1` [Entry 608], for which the IC50 in assay [1] is less than 50 nM; in assay [2], more than 100 nM. Moreover, the EC50 in assay [3] is less than 50 nM; in assay [4] it was 50 to 100 nM.
Turning to `Cc1ccc(Cl)c(-n2nnnc2SCC(=O)Nc2ccccc2[N+](=O)[O-])c1` [Entry 145], the IC50 was less than 50 nM in assay [1] and more than 100 nM in assay [2]. Also, the EC50 in assay [3] was less than 50 nM; in assay [4] it was more than 100 nM.
With `Cc1ccc(-n2nnnc2SCC(=O)Nc2ccc(-c3ccccc3)cc2Cl)c(Cl)c1` [Entry 510], the results for the IC50 in assay [1] and in assay [2] were less than 50 nM and 50 to 100 nM, respectively. In addition, the EC50 in assay [3] is less than 50 nM; in assay [4], more than 100 nM.
For the compound `CC(C)(C)c1ccc(-n2nnnc2SCC(=O)Nc2ccc([N+](=O)[O-])cc2Cl)c(Cl)c1` [Entry 602], the IC50 is less than 50 nM in assay [1] and more than 100 nM in assay [2]. The EC50 in assay [3] was 50 to 100 nM; in assay [4], more than 100 nM.
Take `CC(C)(C)c1ccc(-n2nnnc2SCC(=O)Nc2ccc(N3CCNCC3)cc2Cl)c(Cl)c1` [Entry 615]: the IC50 in assay [1] was less than 50 nM; in assay [2], more than 100 nM. The EC50 in assay [3] is less than 50 nM; in assay [4], more than 100 nM.
Turning to `O=C(CSc1nnnn1-c1cccc2ccccc12)Nc1ccc(-c2ccccc2)cc1Cl` [Entry 238], the IC50 is less than 50 nM in assay [1] and more than 100 nM in assay [2]. The EC50 in assay [3] was 50 to 100 nM; in assay [4] it was more than 100 nM.
On to `Cc1nnc(SCC(=O)Nc2ccccc2Cl)n1-c1ccc(C(C)(C)C)cc1Cl` [Entry 430], for which the IC50 was less than 50 nM in assay [1] and 50 to 100 nM in assay [2]. In addition, the EC50 in assay [3] was less than 50 nM; in assay [4], 50 to 100 nM.
As to `CC(C)(C)c1ccc(-n2nnnc2SCC(=O)Nc2ccc(N3CCCC3)cc2Cl)c(Cl)c1` [Entry 612], the IC50 was less than 50 nM in assay [1] and more than 100 nM in assay [2]. For the same compound, the EC50 in assay [3] was 50 to 100 nM; in assay [4], more than 100 nM.
Regarding `CC(C)(C)c1ccc(-n2nnnc2SCC(=O)Nc2ccc(S(N)(=O)=O)cc2Cl)c(Cl)c1` [Entry 604], the IC50 in assay [1] and in assay [2] was less than 50 nM in each case. In addition, the EC50 in assay [3] and in assay [4] was less than 50 nM in each case.
For the compound `CC(C)=CCc1ccc(-n2nnnc2SCC(=O)Nc2ccccc2Cl)c(Cl)c1` [Entry 709], the IC50 in assay [1] was less than 50 nM; in assay [2], more than 100 nM. In addition, the EC50 in assay [3] and in assay [4] was more than 100 nM throughout.
Turning to `CCc1ccc(-n2nnnc2SCC(=O)Nc2ccccc2Cl)c(Cl)c1` [Entry 707], the IC50 in assay [1] is less than 50 nM; in assay [2], more than 100 nM. In addition, the EC50 in assay [3] was less than 50 nM; in assay [4], more than 100 nM.
Turning to `Cc1cc(C)c(-n2nnnc2SCC(=O)Nc2ccccc2[N+](=O)[O-])c(Cl)c1` [Entry 146], the IC50 in assay [1] was less than 50 nM; in assay [2] it was 50 to 100 nM. The EC50 in assay [3] is less than 50 nM; in assay [4], 50 to 100 nM.
